Data published in US9758486B1 (priority 2017, dated 2017).
Where two headings read alike, the source gives them in different places.

Tests used:
[1] = tested on: human lung cancer cells (A-549); assay: MTT tumor cell proliferation inhibition test, A-549; type: cell-based; conditions: read-out: Half Inhibitory Concentration IC50, A-549
Experimental: (§1) The compounds of the present invention were subjected to tumor cell proliferation inhibition test, and conventional MTT method was used.
(§2) Cell lines: human kidney cancer cells (A-498), human lung cancer cells (A-549), human brain astrocytoma cells (U-251). The culture medium was DMEM+15% NBS+double antibody.
(§3) Sample solution preparation: after dissolving with DMSO (Merck), PBS (−) was added to obtain 100 μmol/L solution or homogeneous suspension. The solution was diluted with PBS (−) in DMSO to a final concentration of 0.1, 1, 10, 20, 40, 60, 80, 100 μmol/L.
(§4) Gossypol was used as control solution, prepared under the same condition.
(§5) Cell culture: adherent growth Tumor cells were cultured in 1640 medium containing 10% inactivated neonatal bovine serum and penicillin, streptomycin (1 million U/L), placed in carbon dioxide incubator at 37° C., 5% CO2, and saturated humidity. Cells were treated serially passaged 2-3 times. The first culture was washed with PBS 2 times, and digested with trypsin. Fresh culture medium was added evenly, cells were adjusted to a appropriate concentration and transferred into a new culture flask. Cell in an exponential phase were chosen for the tests.
(§6) MTT Assay for Cell Viability and IC50 Determination:
(§7) Experimental Principle: Living cells mitochondria in the dehydrogenase can reduce yellow MTT to water-insoluble blue-violet product MT (MTT formazan), deposited in the cells. The amount of production is proportional to the number of living cells. […] DMSO can dissolve blue violet crystals, and the color depth is proportional to the amount contained, so the absorbance measured by the microplate reader can reflect the cell viability.
(§8) Methods: The exponential phase cells were digested and counted and seeded in 96-well plates at a density of 2×10^4/mL at 100 μl per well. After 24 hours of incubation, the cells to be tested were treated with 0.1, 1, 10, 20, 40, 60, 80, 100 μmol/L of the compounds. Each experimental group had 5 wells in each concentration, and the culture medium containing 0.4% DMSO was used as control. After 48 hours, the supernatant was discarded, and 100 μl of MTT ((2-(4,5-dimethyl-2-thiazolyl)-3,5-diphenyl-2H-[…]) (1 mg/mL) was added to each well. After another 4 hours, the supernatant was discarded, and 100 μl of DMSO was added to each well. After mixing, the absorbance was measured at 570 nm using a microplate reader. An IC50 calculation software was used to determine the half inhibitory concentration (IC50).

[2] = tested on: human kidney cancer cells (A-498); assay: MTT tumor cell proliferation inhibition test, A-498; type: cell-based; conditions: read-out: Half Inhibitory Concentration IC50, A-498
Experimental: as §1, §2, §3, §4, §5, §6, §7, §8

[3] = tested on: human brain astrocytoma cells (U-251); assay: MTT tumor cell proliferation inhibition test, U-251; type: cell-based; conditions: read-out: Half Inhibitory Concentration IC50, U-251
Experimental: as §1, §2, §3, §4, §5, §6, §7, §8

[4] = tested on: tumor cells (A-498, A-549, U-251); assay: MTT tumor cell proliferation inhibition test, summary in words over the cell lines tested; type: cell-based, human; conditions: summary of Table 1
Experimental: as §1, §2, §8
These compounds can be used for the study of antitumor agents.

[5] = A549, A-549 cells, MTT, 48 hours treatment
[6] = A498, A-498 cells, MTT, 48 hours treatment
[7] = U-251 cells, MTT, 48 hours treatment

Structure (SMILES) | IC50 [1, 5] [µM] | IC50 [2, 6] [µM] | IC50 [3, 7] [µM] | IC50 ([1]; A549, 48 h) [µM] | IC50 ([3]; U-251, 48 h) [µM] | IC50 ([2]; A498, 48 h) [µM] | antitumor activities (statement in words) [4]
CC1=NN(c2ccc(C)cc2)C(=O)/C1=C\c1c(O)c(O)c(C(C)C)c2cc(C)c(-c3c(C)cc4c(C(C)C)c(O)c(O)c(C=O)c4c3O)c(O)c12 [B, (Z)-1,1′,6,6′,7,7′-hexahydroxy-5,5′-diisopropyl-3,3′-dimethyl-8′-((3-methyl-5-oxo-1-(p-tolyl)-1H-pyrazol-4(5H)-ylidene)methyl)-[2,2′-binaphthalene]-8-carbaldehyde] | 78.4 ± 2.65 | 37.6 ± 2.23 | – | – | – | – | –
COc1ccc(N2N=C(C)/C(=C/c3c(O)c(O)c(C(C)C)c4cc(C)c(-c5c(C)cc6c(C(C)C)c(O)c(O)c(C=O)c6c5O)c(O)c34)C2=O)cc1 [C] | > 100 | 25.3 ± 0.95 | > 100 | – | – | – | –
CC1=NN(c2ccccc2)C(=O)/C1=C\c1c(O)c(O)c(C(C)C)c2cc(C)c(-c3c(C)cc4c(C(C)C)c(O)c(O)c(C=O)c4c3O)c(O)c12 [Compound A, (Z)-1,1′,6,6′,7,7′-hexahydroxy-5,5′-diisopropyl-3,3′-dimethyl-8′-((3-methyl-5-oxo-1-phenyl-1H-pyrazol-4(5H)-ylidene)methyl)-[2,2′-binaphthalene]-8-carbaldehyde] | – | – | – | 10.5 ± 0.92 | 10.4 ± 0.67 | 11.4 ± 1.03 | good antitumor activities in all three cell lines tested
C=CC1=NN(c2ccc(C)cc2)C(=O)/C1=C\c1c(O)c(O)c(C(C)C)c2cc(C)c(-c3c(C)cc4c(C(C)C)c(O)c(O)c(C=O)c4c3O)c(O)c12 [Compound I, (Z)-1,1′,6,6′,7,7′-hexahydroxy-5,5′-diisopropyl-3,3′-dimethyl-8′-((5-oxo-1-(p-tolyl)-3-vinyl-1H-pyrazol-4(5H)-ylidene)methyl)-[2,2′-binaphthalene]-8-carbaldehyde] | 18.1 ± 0.72 | 11.7 ± 0.65 | 20.7 ± 0.84 | – | – | – | good antitumor activities in different cell lines
CC1=NN(c2ccc(Cl)cc2)C(=O)/C1=C\c1c(O)c(O)c(C(C)C)c2cc(C)c(-c3c(C)cc4c(C(C)C)c(O)c(O)c(C=O)c4c3O)c(O)c12 [D, (Z)-8′-((1-(4-chlorophenyl)-3-methyl-5-oxo-1H-pyrazol-4(5H)-ylidene)methyl)-1,1′,6,6′,7,7′-hexahydroxy-5,5′-diisopropyl-3,3′-dimethyl-[2,2′-binaphthalene]-8-carbaldehyde] | 36.9 ± 0.83 | 24.3 ± 0.91 | > 100 | – | – | – | –
COC1=NN(c2ccccc2)C(=O)/C1=C\c1c(O)c(O)c(C(C)C)c2cc(C)c(-c3c(C)cc4c(C(C)C)c(O)c(O)c(C=O)c4c3O)c(O)c12 [E, (Z)-1,1′,6,6′,7,7′-hexahydroxy-5,5′-diisopropyl-8′-((3-methoxy-5-oxo-1-phenyl-1H-pyrazol-4(5H)-ylidene)methyl)-3,3′-dimethyl-[2,2′-binaphthalene]-8-carbaldehyde] | 26.7 ± 1.12 | 17.8 ± 0.95 | 26.1 ± 1.8 | – | – | – | good antitumor activities in different cell lines
COC1=NN(c2ccc(OC)cc2)C(=O)/C1=C\c1c(O)c(O)c(C(C)C)c2cc(C)c(-c3c(C)cc4c(C(C)C)c(O)c(O)c(C=O)c4c3O)c(O)c12 [F] | 65.9 ± 2.84 | > 100 | 58.2 ± 2.1 | – | – | – | –
COC1=NN(c2ccc(Cl)cc2)C(=O)/C1=C\c1c(O)c(O)c(C(C)C)c2cc(C)c(-c3c(C)cc4c(C(C)C)c(O)c(O)c(C=O)c4c3O)c(O)c12 [G, (Z)-8′-((1-(4-chlorophenyl)-3-methoxy-5-oxo-1H-pyrazol-4(5H)-ylidene)methyl)-1,1′,6,6′,7,7′-hexahydroxy-5,5′-diisopropyl-3,3′-dimethyl-[2,2′-binaphthalene]-8-carbaldehyde] | 43.4 ± 1.21 | 26.5 ± 1.02 | > 100 | – | – | – | good antitumor activities in different cell lines
Cc1cc2c(C(C)C)c(O)c(O)c(C=O)c2c(O)c1-c1c(C)cc2c(C(C)C)c(O)c(O)c(C=O)c2c1O [Gossypol] | 14.9 ± 0.64 | 11.3 ± 0.28 | 20.2 ± 1.3 | – | – | – | –
C=CC1=NN(c2ccccc2)C(=O)/C1=C\c1c(O)c(O)c(C(C)C)c2cc(C)c(-c3c(C)cc4c(C(C)C)c(O)c(O)c(C=O)c4c3O)c(O)c12 [H, (Z)-1,1′,6,6′,7,7′-hexahydroxy-5,5′-diisopropyl-3,3′-dimethyl-8′-((5-oxo-1-phenyl-3-vinyl-1H-pyrazol-4(5H)-ylidene)methyl)-[2,2′-binaphthalene]-8-carbaldehyde] | > 100 | > 100 | 78.7 ± 2.02 | – | – | – | –
C=CC1=NN(c2ccc(Cl)cc2)C(=O)/C1=C\c1c(O)c(O)c(C(C)C)c2cc(C)c(-c3c(C)cc4c(C(C)C)c(O)c(O)c(C=O)c4c3O)c(O)c12 [J, (Z)-8′-((1-(4-chlorophenyl)-5-oxo-3-vinyl-1H-pyrazol-4(5H)-ylidene)methyl)-1,1′,6,6′,7,7′-hexahydroxy-5,5′-diisopropyl-3,3′-dimethyl-[2,2′-binaphthalene]-8-carbaldehyde] | 12.7 ± 1.12 | 13.8 ± 0.85 | 26.2 ± 1.15 | – | – | – | good antitumor activities in different cell lines
CC1=NN(c2c(C)cccc2Cl)C(=O)/C1=C\c1c(O)c(O)c(C(C)C)c2cc(C)c(-c3c(C)cc4c(C(C)C)c(O)c(O)c(C=O)c4c3O)c(O)c12 [K, (Z)-8′-((1-(2-chloro-6-methylphenyl)-3-methyl-5-oxo-1H-pyrazol-4(5H)-ylidene)methyl)-1,1′,6,6′,7,7′-hexahydroxy-5,5′-diisopropyl-3,3′-dimethyl-[2,2′-binaphthalene]-8-carbaldehyde] | – | – | – | > 100 | 11.5 ± 1.32 | > 100 | –
C=CC1=NN(c2c(C)cccc2Cl)C(=O)/C1=C\c1c(O)c(O)c(C(C)C)c2cc(C)c(-c3c(C)cc4c(C(C)C)c(O)c(O)c(C=O)c4c3O)c(O)c12 [L, (Z)-8′-((1-(2-chloro-6-methylphenyl)-5-oxo-3-vinyl-1H-pyrazol-4(5H)-ylidene)methyl)-1,1′,6,6′,7,7′-hexahydroxy-5,5′-diisopropyl-3,3′-dimethyl-[2,2′-binaphthalene]-8-carbaldehyde] | > 100 | > 100 | > 100 | – | – | – | –
